Legend:
[1] = tested on: ICR mice; assay: Serum markers after 60 min forced swimming without weight load; assay type: in vivo; settings: serum after 60 min forced swimming, day 17, oral 7 mg/kg BW
Procedure: On day 17 after the administration of the test substance, the experimental animal was forced to swim (for 60 minutes) without a weight load. Then, the experimental animal was anesthetized using an anesthetic prepared by dilution of tribromoethanol with tertiary amyl alcohol and blood was taken from the eye socket. The blood was placed in a serum-separating tube (Becton Dickinson) and left at room temperature for 30 minutes, centrifuged at 3,000 rpm for 20 minutes to separate the serum, and kept at −70° C. until analysis.
Blood urea nitrogen (BUN) and creatinine (CREA) content in the serum and the activities of alanine aminotransferase (ALT), aspartate aminotransferase (AST), creatine kinase (CK) and lactate dehydrogenase (LDH) were measured using a blood biochemistry analyzer (KoneLab 20 XT, Thermo Fisher Scientific). The serum lactate content was measured using a lactate assay kit (Abcam) according to the method proposed by the manufacturer.
The result of measuring the contents of lactate, BUN and CREA and the activities of CK, LDH, ALT and AST in the serum taken after forced swimming for 60 minutes without weight load is shown in Table 19.

[2] = tested on: ICR mice; assay: Treadmill test: exercise time and exercise capacity until exhaustion; assay type: in vivo; settings: 6 weeks
Procedure: After an acclimatization period of 1 week, healthy animals were selected and divided into 6 groups according to the randomized block design. The animals were divided into (G1) a non-exercise control group, (G2) a non-exercise+7 mg/kg body weight (BW) Example 1 group, (G3) a non-exercise+7 mg/kg BW Example 2 group, (G4) a non-exercise+7 mg/kg BW Example 3 group, (G5) a non-exercise+7 mg/kg BW Example 4 group, (G6) an exercise control group, (G7) an exercise+7 mg/kg BW Example 1 group, (G8) an exercise+7 mg/kg BW Example 2 group, (G9) an exercise+7 mg/kg BW Example 3 group, (G10) an exercise+7 mg/kg BW Example 4 group, and (G11) an exercise+75 mg/kg BW Cr dose group. Each test group consisted of 10 animals.
The test substance was dissolved in drinking water and administered every day at regular times (2 hours before exercise) for 6 weeks. Throughout the test period, the experimental animals were given free access to solid feed for experimental animals (Cargill Agri Puna) and drinking water.
The endurance exercise of the animals was conducted for 6 weeks using a treadmill for small animals (Exer3/6 Treadmill, Columbus Instruments). The endurance exercise was conducted with 10 degrees of slope at 10 m/min, starting from for 15 minutes in the first week, for 20 minutes in the second week, for 25 minutes in the third week, for 30 minutes in the fourth week, for 35 minutes in the fifth week, and for 40 minutes in the sixth week.
After 6 weeks of the exercise training, in order to evaluate endurance exercise performance, exercise was started with 10 degrees of slope at 10 m/min for 5 minutes, and the intensity of the exercise was increased by 1 m/min every 1 minute up to the highest speed of 25 m/min. The duration of the exercise until exhaustion was measured. The experimental animal was judged to be exhausted if it was unable to run for 10 seconds or longer at the back of the treadmill. The exercise capacity of the experimental animal was calculated as follows.
In order to evaluate the performance of the effect of the test substances on endurance exercise performance, exercise was started with 10 degrees of slope at 10 m/min for 5 minutes, and the intensity of the exercise was increased by 1 m/min every 1 minute up to the highest speed of 25 m/min.

[3] = non-exercise, 7 mg/kg BW, treadmill test
[4] = treadmill exercise, 7 mg/kg BW (Cr 75 mg/kg BW)

Q: How did the ALT [1] turn out when `CC(C)=CCC[C@](C)(O)C1CC[C@]2(C)C1[C@H](O)CC1[C@@]3(C)C[C@@H](O)C(OC4OC(CO)C(O)C(O)C4OC4OC(CO)C(O)C(O)C4O)C(C)(C)C3CC[C@]12C` (stereo partly shown) [Example 1, Gypenoside L] was run?
A: 100.41 ± 19.75 U/L

Q: And the AST [1]?
A: 160.81 ± 20.53 U/L

Q: And the BUN [1]?
A: 8.15 ± 0.68 mg/dL

Q: What about the CK [1] of the same molecule?
A: 1896.1 ± 196.4 U/L

Q: What about the CREA [1] of the same molecule?
A: 0.35 ± 0.01 mg/dL

Q: And the LDH [1]?
A: 1224.3 ± 162.1 U/L

Q: And the Exercise capacity [2, 3]?
A: 1,583 ± 91 g

Q: And the “Time until exhaustion (sec)” value [2, 3]?
A: 1,472 ± 66 sec

Q: And the Exercise capacity [2, 4]?
A: 2,832 ± 119^+ g

Q: And the “Time until exhaustion (sec)” value [2, 4]?
A: 2,393 ± 93^+ sec
